{"source": "paper PMC12373846", "about": "“Hemoglobin as a pseudoperoxidase and drug target for oxidative stress-related diseases” (Signal Transduction and Targeted Therapy, 2025)", "key": {"[1]": {"tested_on": "primary cultured hippocampal astrocytes", "assay": "DCFDA intracellular ROS assay", "assay_type": "cell-based, mouse", "conditions": "for relative ROS level (DCFDA): Aβ42+KDS12025 10 μM, Fig. 6c", "protocol": "Primary hippocampal astrocytes were obtained from postnatal day 0‒2 (P0‒2) C57BL/6 mice as previously described.[73] The hippocampal tissue was dissected free of meninges, minced, and dissociated into a single-cell suspension by trituration. The cells were grown in Dulbecco’s modified Eagle’s medium supplemented with D-glucose (4500 mg/L), L-glutamine, sodium pyruvate (110 mg/L), 10% heat-inactivated horse serum, 10% heat-inactivated fetal bovine serum, and 1000 U/ml penicillin‒streptomycin. The cells were maintained at 37 °C in a humidified atmosphere containing 5% CO2.\nThe intracellular ROS levels of astrocytes were determined via 2′,7′- dichlorodihydrofluorescein diacetate (DCFDA; Thermo Fisher). Primary cultured hippocampal astrocytes were seeded into black 96-well plates (Ibidi) at a density of 5 × 10⁴ cells per well. The plates were incubated with oligomerized Aβ42 in the presence of KDS12008, KDS12017, KDS12025, HTPEB (10 µM each), and sodium pyruvate (1 mM). These cells were subsequently washed with Ca^2+ and Mg^2+-containing PBS, followed by the application of 30 µM DCFDA and incubation at 37 °C for 30 min in a dark incubator. The mean fluorescence intensity of each well was measured via iD5 microplate readers at 485 nm and 530 nm. The fluorescence values were calculated by subtracting the blank readings and normalizing them to those of the control group."}, "APP/PS1 mice [2]": {"tested_on": "APP/PS1 mice", "assay": "Passive avoidance test, APP/PS1 mice", "assay_type": "in vivo, mouse", "protocol": "(§1) For an animal model of AD, both sexes of 10- to 18-month-old APP/PS1 mice were maintained and used as previously described.[76],[77] To test the effects of novel H2O2-decomposing enhancers in the AD model, the mice were treated by i.p. injection with KDS12008 (3 mg/kg/day), KDS12017 (3 mg/kg/day), or KDS12025 (3 or 10 mg/kg/day) once per day for 1 or 2 weeks, depending on the experimental protocol. All drugs were dissolved in 200 μl of saline, and the amount of each drug was calculated on the basis of the weight (kg) of the mouse. Moreover, KDS12025 (3 mg/kg/day) was orally administered to the AD model for 2 weeks ad libitum.\nSufficiently handled mice were ready before the PAT. The mice were placed in a two-compartment (light and dark) shuttle chamber with a shock generator (Ugo Basile, Italy). On the first day, the mice were placed in the light compartment for acquisition. The mice were allowed to explore the light compartment for 60 s, after which the door separating the light and dark compartments was raised to allow the mice to enter the dark compartment. When the mice entered the dark compartment, the separating door was closed immediately, and an electrical foot shock (0.5 mA, 2 s duration) was delivered through the floor grid. The mice were then moved back to the home cage, and the retention trial was conducted 24 h after the acquisition. On the second day, the mice were again placed in the light compartment for the retention trial. After 60 s, the door was raised to allow the mice to enter the dark compartment. The latency to step through the dark compartment before and after the electric shock was recorded for up to 540 s."}, "APP/PS1 mice [3]": {"tested_on": "APP/PS1 mice", "assay": "Immunohistochemistry of hippocampus, APP/PS1 mice", "assay_type": "in vivo, mouse", "protocol": "as §1\nThe mice were deeply anesthetized with vaporized 1% isoflurane and placed into stereotaxic frames (RWD Life Science, China). Following an incision on the midline of the scalp, a hole was drilled into the skull above the hippocampus. AAV-GFAP104-GFP or AAV-GFAP104-DTR-GFP was bilaterally microinjected into the hippocampal CA1 region (AP, −2.0 mm; ML, ±1.5 mm; DV, −1.65 mm from the bregma). Diphtheria toxin (2 mg/ml) was administered for 16 days as previously described.[77] For shRNA knockdown, AAV-pSicoR-Hbβ-shRNA-mCherry or AAV-pSicoR-Sc-shRNA-mCherry was microinjected into the same coordinate system. A total of 0.8 µl of the virus was injected via a syringe pump (KD Scientific, USA). The injection procedures were implemented before 5 weeks of the experiments. For cell type-specific knockdown, AAV-pSico-Hbβ-shRNA-GFP or AAV-pSico-Sc-shRNA-GFP was combined with either AAV-CaMKII-Cre-mCherry for neuronal targeting or AAV-GFAP-Cre-mCherry for astrocyte targeting. The viruses were bilaterally injected into the hippocampus and substantia nigra via the same stereotaxic coordinates and injection procedures. All viruses used in this study were produced at the Institute for Basic Science virus facility (IBS virus facility, Korea). To investigate the effects of 0.1 mg/kg/day KDS12025, GiD mice were injected with diphtheria toxin (2 mg/ml) daily for 16 days. Concurrently, KDS12025 was administered ad libitum (0.1 mg/kg/day) during the same period.\nThe mice were deeply anesthetized with 2% isoflurane and positioned on the operating table. After the abdomen was opened and the heart was exposed, the […] were perfused with saline, followed by 4% paraformaldehyde (PFA) in 0.1 M PBS. The mice were decapitated, and the brains were excised from the skull. Excised brains were postfixed in 4% PFA overnight at 4 °C and dehydrated in 30% sucrose for 48 h. Coronal hippocampal sections were cut at 30 µm thickness with a cryostat and stored in storage solution. For the ALS experiments, lumbar spinal cords (L2–L5) were also carefully dissected and immediately immersed in 4% PFA for postfixation. The sections were fully washed in 0.1 M PBS and incubated for 1 h in blocking solution (0.3% Triton X-100, 2% donkey and goat serum in 0.1 M PBS). Next, a mixture of primary antibodies in the blocking solution was used for immunostaining on a shaker overnight at 4 °C. The sections were washed in PBS three times. After washing, the sections were incubated with the corresponding fluorescent secondary antibodies for 1 h at RT. DAPI staining was performed by adding a DAPI solution (1:2000) during the second washing step. After the washing step was complete, the sections were mounted on cover slides with mounting medium. A series of fluorescence images were obtained with an LSM900 (Zeiss, Germany) confocal microscope or Lattice SIM Elyra 7 (Zeiss, Germany). The 15–22 μm Z stack images in 1–2 μm steps were processed for image analysis, which was performed via the ImageJ (NIH, US) and ZEN digital imaging for light microscopy blue system (Zeiss, Germany) programs."}, "[4]": {"conditions": "3 mg/kg/day i.p., 16 times, Fig. S10b"}, "[5]": {"conditions": "APP+KDS12025 3 mg/kg/day ad libitum, Fig. 5m"}}, "data": [{"smiles": "CNc1ccc(NCCc2ccccc2OC)cc1.Cl", "note": "[KDS12025, N^1-(2-methoxyphenethyl)-N^4-methylbenzene-1,4-diamine hydrochloride salt]", "values": [{"measurement": "Aβ-induced ROS level (DCFDA), normalized to control", "setting": "[1]; Aβ 5μM + compound 10μM, Fig. 3e", "value": "110.3±5.804"}, {"measurement": "relative ROS level (DCFDA)", "setting": "[1]; Hbβ-shRNA astrocytes", "value": "134.1±5.185"}, {"measurement": "relative ROS level (DCFDA)", "setting": "[1]; Sc-shRNA astrocytes", "value": "105.8±2.173"}, {"measurement": "PAT transfer latency, acquisition", "setting": "APP/PS1 mice [2]; [4]", "value": "29.03±6.431"}, {"measurement": "PAT transfer latency, retrieval", "setting": "APP/PS1 mice [2]; [4]", "value": "291.0±68.80"}, {"measurement": "PAT transfer latency, acquisition", "setting": "APP/PS1 mice [2]; 3mpk i.p., 7 times, Fig. S10g", "value": "36.47±13.39"}, {"measurement": "PAT transfer latency, retrieval", "setting": "APP/PS1 mice [2]; 3mpk i.p., 7 times, Fig. S10g", "value": "341.7±71.16"}, {"measurement": "PAT transfer latency, acquisition", "setting": "APP/PS1 mice [2]; 10mpk i.p., 7 times, Fig. S10g", "value": "66.00±15.30"}, {"measurement": "PAT transfer latency, retrieval", "setting": "APP/PS1 mice [2]; 10mpk i.p., 7 times, Fig. S10g", "value": "508.8±49.93"}, {"measurement": "PAT transfer latency, acquisition", "setting": "APP/PS1 mice [2]; [5]", "value": "21.17±3.843"}, {"measurement": "PAT transfer latency, retrieval", "setting": "APP/PS1 mice [2]; [5]", "value": "254.3±56.96"}, {"measurement": "mean Hbβ intensity in GFAP-positive areas", "setting": "APP/PS1 mice [3]; 3 mg/kg/day ad libitum, Fig. 5e", "value": "WT (70.03±1.523, n=55), APP (62.3±1.219, n=65), APP+KDS12025 (ad libitum) (68.67±2.358, n=54) One-way ANOVA with Tukey's multiple comparisons test, F(2,171) = 6.123, p = 0.003 WT vs. APP, p = 0.004; WT vs. APP+KDS12025 (ad libitum), p = 0.85; APP vs. APP+KDS12025 (ad libitum), p = 0.02"}, {"measurement": "mean GFAP intensity in GFAP-positive areas", "setting": "APP/PS1 mice [3]; 3 mg/kg/day ad libitum, Fig. 5f", "value": "WT (61.01±2.28, n=6), APP (114.3±9.536, n=6), APP+KDS12025 (ad libitum) (64.48±6.98, n=6) One-way ANOVA with Tukey's multiple comparisons test, F(2,14) = 17.24, p < 0.001 WT vs. APP, p < 0.001; WT vs. APP+KDS12025 (ad libitum), p = 0.89; APP vs. APP+KDS12025 (ad libitum), p < 0.001"}, {"measurement": "Sholl analysis, sum of intersections", "setting": "APP/PS1 mice [3]; 3 mg/kg/day ad libitum, Fig. 5g", "value": "WT (31.45±3.606, n=11), APP (63.19±5.017, n=16), APP+KDS12025 (ad libitum) (33.69±3.3, n=13) One-way ANOVA with Tukey's multiple comparisons test, F(2,37) = 18.10, p < 0.001 WT vs. APP, p < 0.001; WT vs. APP+KDS12025 (ad libitum), p = 0.94; APP vs. APP+KDS12025 (ad libitum), p < 0.001"}, {"measurement": "Sholl analysis, ending radius", "setting": "APP/PS1 mice [3]; 3 mg/kg/day ad libitum, Fig. 5i", "value": "WT (110.0±6.606, n=11), APP (135.6±5.625, n=16), APP+KDS12025 (ad libitum) (103.1±7.794, n=13) One-way ANOVA with Tukey's multiple comparisons test, F(2,37) = 7.249, p = 0.002 WT vs. APP, p = 0.03; WT vs. APP+KDS12025 (ad libitum), p = 0.77; APP vs. APP+KDS12025 (ad libitum), p = 0.003"}, {"measurement": "Sholl analysis, number of intersections", "setting": "APP/PS1 mice [3]; 3 mg/kg/day ad libitum, Fig. 5j", "value": "Two-way ANOVA with Tukey's multiple comparison test, F (2,378) = 37.72, p < 0.001 WT (2.028, n=12), APP (4.318, n=17), APP+KDS12025 (ad libitum) (2.392, n=12) WT vs. APP, p < 0.001 (***); WT vs. APP+KDS12025 (ad libitum), p = 0.52; APP vs. APP+KDS12025 (ad libitum), p < 0.001 (^###)"}, {"measurement": "Sholl analysis, ramification index", "setting": "APP/PS1 mice [3]; 3 mg/kg/day ad libitum, Fig. 5h", "value": "WT (1.617±0.2177, n=11), APP (7.134±1.523, n=16), APP+KDS12025 (ad libitum) (2.808±0.6584, n=13) One-way ANOVA with Tukey's multiple comparisons test, F(2,37) = 6.945, p = 0.003 WT vs. APP, p = 0.004; WT vs. APP+KDS12025 (ad libitum), p = 0.76; APP vs. APP+KDS12025 (ad libitum), p = 0.02"}, {"measurement": "mean intensity of GABA in GFAP-positive area", "setting": "APP/PS1 mice [3]; 3 mg/kg/day ad libitum, Fig. S11c", "value": "WT (41.73±1.1951, n=19), APP (50.90±1.074, n=41), APP+KDS12025 (ad libitum) (44.45±1.015, n=28) One-way ANOVA with Tukey's multiple comparisons test, F(2,85) = 14.24, p < 0.001 WT vs. APP, p < 0.001; WT vs. APP+KDS12025 (ad libitum), p = 0.38; APP vs. APP+KDS12025 (ad libitum), p < 0.001"}, {"measurement": "mean intensity of 8-OHdG in GFAP-positive area", "setting": "APP/PS1 mice [3]; 3 mg/kg/day ad libitum, Fig. S11d", "value": "WT (1903±72.86, n=32), APP (2435±66.11, n=58), APP+KDS12025 (ad libitum) (1951±48.61, n=57) One-way ANOVA with Tukey's multiple comparisons test, F(2,144) = 23.42, p < 0.001 WT vs. APP, p < 0.001; WT vs. APP+KDS12025 (ad libitum), p = 0.88; APP vs. APP+KDS12025 (ad libitum), p < 0.001"}, {"measurement": "mean intensity of Iba1 in the hippocampus", "setting": "APP/PS1 mice [3]; 3 mg/kg/day i.p., Fig. S10e", "value": "1343±38.44"}, {"measurement": "mean intensity of GFAP in the hippocampus", "setting": "APP/PS1 mice [3]; 3 mg/kg/day i.p., Fig. S10d", "value": "1190±87.29"}, {"measurement": "mean intensity of GFAP in the hippocampus", "setting": "APP/PS1 mice [3]; 3mpk i.p., Fig. S10i", "value": "59.33±6.459"}]}]}
